Measurements taken from patent publication US20050208496A1, “Methods of testing for bronchial asthma or chronic obstructive pulmonary disease” (Genox Research, Inc., priority 2002, published 2005).

System: respiratory epithelial cells

IL-13: human IL-13 (Peprotech, Inc.) added to the medium at 50 ng/mL to stimulate respiratory epithelial cells
IFIT4 (38584_at) expression, fold change upon IL-13 stimulation (lot 2, Day 3, AI method): 10.3 fold | IFITM1 (675_at) expression, fold change upon IL-13 stimulation (lot 2, Day 3, AI method): 3.6 fold | IL13RA2 (1016_s_at) expression fold change upon IL-13 stimulation (lot 2, Day 3, AI method): 15.9 fold | IL19 (47855_at) expression fold change (lot 2, Day 3, AI method): 10.9 fold | ILIRL1 (40322_at) expression, fold change upon IL-13 stimulation (lot 2, Day 3, AI method): 9.8 fold | IRF7 (36412_s_at) expression fold change (lot 2, Day 3, AI method): 3.4 fold | ISG15 (1107_s_at) expression, fold change upon IL-13 stimulation (lot 2, Day 3, AI method): 8.8 fold | ISG15 (38432_at) expression, fold change upon IL-13 stimulation (lot 2, Day 3, AI method): 12.6 fold | ISG20 (33304_at) expression, fold change upon IL-13 stimulation (lot 2, Day 3, AI method): 3.3 fold | KIAA0537 (33787_at) expression, fold change upon IL-13 stimulation (lot 2, Day 3, AI method): 4.8 fold | KIAA1199 (36070_at) expression, fold change upon IL-13 stimulation (lot 2, Day 3, AI method): 2.7 fold | KIAA1268 (57050_at) expression fold change (lot 2, Day 3, AI method): 2.2 fold | KIAAI268 (59516_at) expression fold change (lot 2, Day 3, AI method): 2.2 fold | KRT16 (601_s_at) expression fold change (lot 2, Day 3, AI method): 5.2 fold | LAMP3 (37168_at) expression, fold change upon IL-13 stimulation (lot 2, Day 3, AI method): 5.4 fold | LOC57118 (51085_at) expression fold change (lot 2, Day 3, AI method): 2.7 fold | LOC64116 (40456_at) expression, fold change upon IL-13 stimulation (lot 2, Day 3, AI method): 5.6 fold | MDA5 (51920_at) expression fold change (lot 2, Day 3, AI method): 3.3 fold | MFHAS1 (50388_at) expression fold change (lot 2, Day 3, AI method): 2.4 fold | MICB (35937_at) expression, fold change upon IL-13 stimulation (lot 2, Day 3, AI method): 2.7 fold | MKP-L (38272_at) expression, fold change upon IL-13 stimulation (lot 2, Day 3, AI method): 2.5 fold | MMP7 (668_s_at) expression, fold change upon IL-13 stimulation (lot 2, Day 3, AI method): 3.4 fold | MP1 (34839_at) expression, fold change upon IL-13 stimulation (lot 2, Day 3, AI method): 2 fold | MX2 (879_at) expression fold change (lot 2, Day 3, AI method): 6.9 fold | MXI (37014_at) expression fold change (lot 2, Day 3, AI method): 11.4 fold | NCF2 (41038_at) expression fold change (lot 2, Day 3, AI method): 4.4 fold | NK4 (39119_s_at) expression fold change upon IL-13 stimulation (lot 2, Day 3, AI method): 4.1 fold | NOS2A (1948_f_at) expression fold change upon IL-13 stimulation (lot 2, Day 3, AI method): 14.5 fold | NOS2A (48918_at) expression fold change (lot 2, Day 3, AI method): 25.4 fold | OAF (39695_at) expression, fold change upon IL-13 stimulation (lot 2, Day 3, AI method): 2.7 fold | OAS1 (38388_at) expression fold change upon IL-13 stimulation (lot 2, Day 3, AI method): 6.5 fold | OAS1 (38389_at) expression fold change upon IL-13 stimulation (lot 2, Day 3, AI method): 4.7 fold | OAS2 (39263_at) expression fold change upon IL-13 stimulation (lot 2, Day 3, AI method): 3.5 fold | OSF-2 (1451_s_at) expression fold change upon IL-13 stimulation (lot 2, Day 3, AI method): 86.8 fold | PKD2 (38120_at) expression, fold change upon IL-13 stimulation (lot 2, Day 3, AI method): 2.4 fold | PLOD2 (34795_at) expression fold change upon IL-13 stimulation (lot 2, Day 3, AI method): 2 fold | PLS1 (39951_at) expression fold change (lot 2, Day 3, AI method): 3.1 fold | PLSCR1 (32775_r_at) expression fold change upon IL-13 stimulation (lot 2, Day 3, AI method): 3 fold | PMCH (32005_at) expression fold change (lot 2, Day 3, AI method): 12.2 fold | PSMB9 (38287_at) expression fold change upon IL-13 stimulation (lot 2, Day 3, AI method): 2.7 fold | PVRL2 (50320_g_at) expression fold change (lot 2, Day 3, AI method): 2.2 fold | RASGRP1 (33291_at) expression fold change (lot 2, Day 3, AI method): 3.7 fold | RIG-1 (59215_at) expression fold change (lot 2, Day 3, AI method): 11.8 fold | SAMHD1 (34714_at) expression, fold change upon IL-13 stimulation (lot 2, Day 3, AI method): 3.7 fold | SCYB10 (431_at) expression fold change upon IL-13 stimulation (lot 2, Day 3, AI method): 4.9 fold | SCYB11 (35061_at) expression fold change upon IL-13 stimulation (lot 2, Day 3, AI method): 6.8 fold | SECTM1 (41045_at) expression, fold change upon IL-13 stimulation (lot 2, Day 3, AI method): 6.8 fold | SERPINB2 (37185_at) expression fold change (lot 2, Day 3, AI method): 4.1 fold | SERPINB4 (1549_s_at) expression fold change (lot 2, Day 3, AI method): 9.6 fold | SERPINB6 (34789_at) expression fold change (lot 2, Day 3, AI method): 2.1 fold | SIAT1 (41352_at) expression fold change upon IL-13 stimulation (lot 2, Day 3, AI method): 3.9 fold | SLC26A4, pendrin (36376_at) expression fold change (lot 2, Day 3, AI method): 118.3 fold | SSI-1 (41592_at) expression, fold change upon IL-13 stimulation (lot 2, Day 3, AI method): 15.5 fold | STAT1 (32860_g_at) expression fold change (lot 2, Day 3, AI method): 2.1 fold | STAT1 (33338_at) expression fold change (lot 2, Day 3, AI method): 5.8 fold | STAT1 (33339_g_at) expression fold change (lot 2, Day 3, AI method): 3.2 fold | TGFB2 (1262_s_at) expression fold change upon IL-13 stimulation (lot 2, Day 3, AI method): 4.1 fold | TGM2 (38404_at) expression fold change upon IL-13 stimulation (lot 2, Day 3, AI method): 2.1 fold | THBS1 (115_at) expression fold change upon IL-13 stimulation (lot 2, Day 3, AI method): 4.1 fold | TSPAN-3 (38612_at) expression, fold change upon IL-13 stimulation (lot 2, Day 3, AI method): 2.5 fold | UBE2L6 (40505_at) expression fold change upon IL-13 stimulation (lot 2, Day 3, AI method): 2.1 fold | UFD1L (811_at) expression, fold change upon IL-13 stimulation (lot 2, Day 3, AI method): 3.1 fold | WARS (38121_at) expression fold change upon IL-13 stimulation (lot 2, Day 3, AI method): 8.7 fold | cig5 (38549_at) expression, fold change upon IL-13 stimulation (lot 2, Day 3, AI method): 14.3 fold | diubiquitin (39959_at) expression, fold change upon IL-13 stimulation (lot 2, Day 3, AI method): 16.3 fold | AA167714 (54897_at) expression fold change (lot 2, Day 7, AI method): 4.7 fold | AA420479 (52539_at) expression fold change (lot 2, Day 7, AI method): 10.1 fold | AA541787 (52622_at) expression fold change (lot 2, Day 7, AI method): 3.9 fold | AA582926 (52307_at) expression fold change (lot 2, Day 7, AI method): 3.7 fold | AA604375 (44127_at) expression fold change (lot 2, Day 7, AI method): 3.9 fold | ACP5 (677_s_at) expression, fold change upon IL-13 stimulation (lot 2, Day 7, AI method): 2.8 fold | ADAM8 (40712_at) expression, fold change upon IL-13 stimulation (lot 2, Day 7, AI method): 4.5 fold | ADAM28 (35479_at) expression, fold change upon IL-13 stimulation (lot 2, Day 7, AI method): 3.7 fold | AI565105 (54886_at) expression fold change (lot 2, Day 7, AI method): 2.4 fold | AI659927 (54033_at) expression fold change (lot 2, Day 7, AI method): 3 fold | AI700705 (46658_at) expression fold change (lot 2, Day 7, AI method): 2.5 fold | AI821796 (57694_at) expression fold change (lot 2, Day 7, AI method): 2.5 fold | AI989346 (52327_s_at) expression fold change (lot 2, Day 7, AI method): 2.5 fold | AKAP2 (35985_at) expression, fold change upon IL-13 stimulation (lot 2, Day 7, AI method): 7.6 fold | AKAP2 (48035_at) expression fold change (lot 2, Day 7, AI method): 6.4 fold | AKAP10 (36632_at) expression, fold change upon IL-13 stimulation (lot 2, Day 7, AI method): 2.4 fold | ALOX15 (34636_at) expression, fold change upon IL-13 stimulation (lot 2, Day 7, AI method): 322.1 fold | ARHE (35803_at) expression fold change upon IL-13 stimulation (lot 2, Day 7, AI method): 2 fold | ARL7 (57151_at) expression fold change (lot 2, Day 7, AI method): 5.3 fold | AW019985 (48826_s_at) expression fold change (lot 2, Day 7, AI method): 14.7 fold | AXL (38433_at) expression, fold change upon IL-13 stimulation (lot 2, Day 7, AI method): 7.5 fold | BAL (52167_at) expression fold change (lot 2, Day 7, AI method): 1.6 fold | BIG2 (34484_at) expression, fold change upon IL-13 stimulation (lot 2, Day 7, AI method): 2.9 fold | BST2 (39061_at) expression, fold change upon IL-13 stimulation (lot 2, Day 7, AI method): 3.1 fold | C1S (40496_at) expression, fold change upon IL-13 stimulation (lot 2, Day 7, AI method): 4.1 fold | C21orf11 (58957_at) expression fold change (lot 2, Day 7, AI method): 2.4 fold | CDH6 (1620_at) expression fold change upon IL-13 stimulation (lot 2, Day 7, AI method): 12.1 fold | CDH6 (57421_at) expression fold change (lot 2, Day 7, AI method): 3.7 fold | CDH26 (46916_at) expression fold change (lot 2, Day 7, AI method): 5.4 fold | CH25H (32363_at) expression, fold change upon IL-13 stimulation (lot 2, Day 7, AI method): 12 fold | CLDN1 (46260_at) expression fold change (lot 2, Day 7, AI method): 3.6 fold | CLDN4 (35276_at) expression, fold change upon IL-13 stimulation (lot 2, Day 7, AI method): 23 fold | CLDN5 (38995_at) expression, fold change upon IL-13 stimulation (lot 2, Day 7, AI method): 8.3 fold | CTSC (133_at) expression, fold change upon IL-13 stimulation (lot 2, Day 7, AI method): 2.2 fold | CXCL16 (44095_at) expression fold change (lot 2, Day 7, AI method): 2 fold | DBCCR1 (40292_at) expression, fold change upon IL-13 stimulation (lot 2, Day 7, AI method): 19.3 fold | DD96 (31610_at) expression, fold change upon IL-13 stimulation (lot 2, Day 7, AI method): 2.5 fold | DDIT3 (39420_at) expression, fold change upon IL-13 stimulation (lot 2, Day 7, AI method): 29.5 fold | DKFZP564O0823 (41402_at) expression, fold change upon IL-13 stimulation (lot 2, Day 7, AI method): 4.6 fold | DKFZP566J091 (57197_at) expression fold change (lot 2, Day 7, AI method): 15.2 fold | DKFZp564N1116 (37784_at) expression, fold change upon IL-13 stimulation (lot 2, Day 7, AI method): 7.8 fold
